Measured values from ChEMBL document CHEMBL4261591, “Antimicrobial 1,3,4-trisubstituted-1,2,3-triazolium salts” (2018).

Key:
Type in all cases: functional
[1] = test system: Escherichia coli; test: microbe, parasite or virus in culture; settings: ATCC 25922, 24 h
Description: Antibacterial activity against Escherichia coli ATCC 25922 after 24 hrs by CLSI broth microdilution assay

[2] = test system: Bacillus subtilis; test: microbe, parasite or virus in culture; settings: ATCC 6051, 24 h
Description: Antibacterial activity against Bacillus subtilis ATCC 6051 after 24 hrs by CLSI broth microdilution assay

[3] = test system: Saccharomyces cerevisiae; test: microbe, parasite or virus in culture; settings: ATCC 9763, 24 h
Description: Antifungal activity against Saccharomyces cerevisiae ATCC 9763 after 24 hrs by CLSI broth microdilution assay

[4] = test system: Staphylococcus epidermidis; test: microbe, parasite or virus in culture; settings: ATCC 14990, 24 h
Description: Antibacterial activity against Staphylococcus epidermidis ATCC 14990 after 24 hrs by CLSI broth microdilution assay

[5] = test system: Candida albicans; test: microbe, parasite or virus in culture; settings: ATCC 90028, 24 h
Description: Antifungal activity against Candida albicans ATCC 90028 after 24 hrs by CLSI broth microdilution assay

[6] = test system: Klebsiella aerogenes; test: microbe, parasite or virus in culture; settings: ATCC 13048, 24 h
Description: Antibacterial activity against Enterobacter aerogenes ATCC 13048 after 24 hrs by CLSI broth microdilution assay

[7] = Selectivity index, ratio of MIC for Escherichia coli ATCC 25922 to MIC for Staphylococcus epidermidis ATCC 14990
[8] = Selectivity index, ratio of MIC for Candida albicans ATCC 90028 to MIC for Bacillus subtilis ATCC 6051
[9] = Selectivity index, ratio of MIC for Enterobacter aerogenes ATCC 13048 to MIC for Staphylococcus epidermidis ATCC 14990
[10] = Selectivity index, ratio of MIC for Saccharomyces cerevisiae ATCC 9763 to MIC for Bacillus subtilis ATCC 6051
[11] = Selectivity index, ratio of MIC for Saccharomyces cerevisiae ATCC 9763 to MIC for Staphylococcus epidermidis ATCC 14990
[12] = Selectivity index, ratio of MIC for Enterobacter aerogenes ATCC 13048 to MIC for Bacillus subtilis ATCC 6051
[13] = Selectivity index, ratio of MIC for Candida albicans ATCC 90028 to MIC for Staphylococcus epidermidis ATCC 14990
[14] = Selectivity index, ratio of MIC for Escherichia coli ATCC 25922 to MIC for Bacillus subtilis ATCC 6051

## Cc1ccc(-[n+]2nn(Cc3ccc(C(C)(C)C)cc3)cc2-c2ccccc2)cc1
[1]
  MIC: > 250 µM
[2]
  MIC: 16 µM
[3]
  MIC: > 250 µM
[4]
  MIC: 16 µM
[5]
  MIC: > 250 µM
[6]
  MIC: > 250 µM

## Cc1ccc(-[n+]2nn(Cc3ccccc3)cc2-c2ccccc2)cc1
[1]
  MIC: > 250 µM
[2]
  MIC: > 250 µM
[3]
  MIC: > 250 µM
[4]
  MIC: > 250 µM
[5]
  MIC: > 250 µM
[6]
  MIC: > 250 µM

## CCCCCCCCCCCCc1cn(Cc2ccccc2)n[n+]1Cc1ccccc1
[1]
  MIC: 16 µM
[2]
  MIC: 2 µM
[3]
  MIC: 16 µM
[4]
  MIC: 4 µM
[5]
  MIC: 16 µM
[6]
  MIC: 16 µM

## Cc1ccc(-n2cc(-c3ccccc3)[n+](Cc3ccccc3)n2)cc1
[1]
  MIC: > 250 µM
[2]
  MIC: > 250 µM
[3]
  MIC: > 250 µM
[4]
  MIC: > 250 µM
[5]
  MIC: > 250 µM
[6]
  MIC: > 250 µM

## CCCCc1cn(Cc2ccccc2)n[n+]1Cc1ccccc1
[1]
  MIC: > 250 µM
[2]
  MIC: > 250 µM
[3]
  MIC: > 250 µM
[4]
  MIC: > 250 µM
[5]
  MIC: > 250 µM
[6]
  MIC: > 250 µM

## CCCCc1cn(-c2ccc(C)cc2)n[n+]1Cc1ccccc1
[1]
  MIC: > 250 µM
[2]
  MIC: > 250 µM
[3]
  MIC: > 250 µM
[4]
  MIC: > 250 µM
[5]
  MIC: > 250 µM
[6]
  MIC: > 250 µM

## CCCCCCCCCCCCc1cn(-c2ccc(C)cc2)n[n+]1Cc1ccc(C(C)(C)C)cc1
[1]
  MIC: 250 µM
[2]
  MIC: 2 µM
[3]
  MIC: 4 µM
[4]
  MIC: 2 µM
[5]
  MIC: 4 µM
[6]
  MIC: 250 µM

## CCCCCCCCc1cn(Cc2ccccc2)n[n+]1Cc1ccccc1
[1]
  MIC: > 250 µM
[2]
  MIC: 8 µM
[3]
  MIC: 250 µM
[4]
  MIC: 8 µM
[5]
  MIC: 250 µM
[6]
  MIC: > 250 µM

## Cc1ccc(-n2cc(-c3ccccc3)[n+](Cc3ccc(C(C)(C)C)cc3)n2)cc1
[1]
  MIC: > 250 µM
[2]
  MIC: 8 µM
[3]
  MIC: > 250 µM
[4]
  MIC: 8 µM
[5]
  MIC: > 250 µM
[6]
  MIC: > 250 µM

## CCCCCCCCCCCCc1cn(-c2ccc(C)cc2)n[n+]1Cc1ccccc1
[1]
  MIC: 8 µM
[2]
  MIC: 1 µM
[3]
  MIC: 8 µM
[4]
  MIC: 2 µM
[5]
  MIC: 8 µM
[6]
  MIC: 8 µM

## CCCCCCCCc1cn(-c2ccc(C)cc2)n[n+]1Cc1ccccc1
[1]
  MIC: > 250 µM
[7]
  Selectivity Index: > 50
[8]
  Selectivity Index: > 50
[2]
  MIC: 4 µM
[9]
  Selectivity Index: > 50
[10]
  Selectivity Index: > 50
[3]
  MIC: 250 µM
[11]
  Selectivity Index: > 50
[4]
  MIC: 8 µM
[12]
  Selectivity Index: > 50
[13]
  Selectivity Index: > 50
[5]
  MIC: 250 µM
[6]
  MIC: > 250 µM
[14]
  Selectivity Index: > 50

## CCCCc1cn(-c2ccc(C)cc2)n[n+]1Cc1ccc(C(C)(C)C)cc1
[1]
  MIC: 250 µM
[7]
  Selectivity Index: > 50
[8]
  Selectivity Index: > 50
[2]
  MIC: 4 µM
[9]
  Selectivity Index: > 50
[10]
  Selectivity Index: > 50
[3]
  MIC: 250 µM
[11]
  Selectivity Index: > 50
[4]
  MIC: 4 µM
[12]
  Selectivity Index: > 50
[13]
  Selectivity Index: > 50
[5]
  MIC: 250 µM
[6]
  MIC: > 250 µM
[14]
  Selectivity Index: > 50

## CCCCc1cn(Cc2ccccc2)n[n+]1Cc1ccc(C(C)(C)C)cc1
[1]
  MIC: > 250 µM
[2]
  MIC: 8 µM
[3]
  MIC: 250 µM
[4]
  MIC: 8 µM
[5]
  MIC: 250 µM
[6]
  MIC: > 250 µM

## CCCCCCCCc1cn(Cc2ccccc2)n[n+]1Cc1ccc(C(C)(C)C)cc1
[1]
  MIC: 31 µM
[2]
  MIC: 1 µM
[3]
  MIC: 16 µM
[4]
  MIC: 2 µM
[5]
  MIC: 8 µM
[6]
  MIC: 31 µM

## CCCCCCCCc1cn(-c2ccc(C)cc2)n[n+]1Cc1ccc(C(C)(C)C)cc1
[1]
  MIC: 16 µM
[2]
  MIC: 2 µM
[3]
  MIC: 8 µM
[4]
  MIC: 2 µM
[5]
  MIC: 4 µM
[6]
  MIC: 16 µM

## CCCCCCCCCCCCc1cn(Cc2ccccc2)n[n+]1Cc1ccc(C(C)(C)C)cc1
[1]
  MIC: 250 µM
[2]
  MIC: 2 µM
[3]
  MIC: 16 µM
[4]
  MIC: 2 µM
[5]
  MIC: 8 µM
[6]
  MIC: 250 µM
